Measured values: PubChem BioAssay AID1259407 (Chemical Carcinogenesis Research Information System (CCRIS), 2018)
Active and inactive are the calls of the source. No rule for the calls is given here.

Test system: CCRIS mutagenicity, Ames/micronucleus/aberration tests
Experiment: CCRIS mutagenicity studies
[1] = Test System: AMES SALMONELLA TYPHIMURIUM, Strain/Indicator: TA98, Metabolic Activation: NONE, Method: PREINCUBATION
[2] = Test System: AMES SALMONELLA TYPHIMURIUM, Strain/Indicator: TA98, Metabolic Activation: NONE, Method: STANDARD PLATE
[3] = Test System: AMES SALMONELLA TYPHIMURIUM, Strain/Indicator: TA100, Metabolic Activation: NONE, Method: STANDARD PLATE
[4] = Test System: AMES SALMONELLA TYPHIMURIUM, Strain/Indicator: TA1537, Metabolic Activation: NONE, Method: STANDARD PLATE
[5] = Test System: AMES SALMONELLA TYPHIMURIUM, Strain/Indicator: TA100, Metabolic Activation: NONE, Method: PREINCUBATION

C[C@H](CCC(=O)O)[C@H]1CC[C@H]2[C@@H]3CC[C@@H]4CC(=O)CC[C@]4(C)[C@H]3CC(=O)[C@]12C
mutagenic call (Test System: AMES SALMONELLA TYPHIMURIUM, Strain/Indicator: TA98, Metabolic Activation: NONE, Method: FLUCTUATION TEST): inactive; negative | mutagenic call [1]: inactive; negative | mutagenic call (Test System: AMES SALMONELLA TYPHIMURIUM, Strain/Indicator: TA100, Metabolic Activation: NONE, Method: FLUCTUATION TEST): inactive; negative

O=C([O-])c1ccc2ccccc2c1.[Mn+2].[O-]C(O)c1ccc2ccccc2c1
mutagenic call (Test System: AMES SALMONELLA TYPHIMURIUM, Strain/Indicator: TA98, Metabolic Activation: HAMSTER, LIVER, S-9, AROCLOR 1254 (10%), Method: STANDARD PLATE): inactive; negative | mutagenic call [2]: inactive; negative | mutagenic call (Test System: AMES SALMONELLA TYPHIMURIUM, Strain/Indicator: TA98, Metabolic Activation: RAT, LIVER, S-9, AROCLOR 1254 (10%), Method: STANDARD PLATE): inactive; negative | mutagenic call (Test System: AMES SALMONELLA TYPHIMURIUM, Strain/Indicator: TA100, Metabolic Activation: HAMSTER, LIVER, S-9, AROCLOR 1254 (10%), Method: STANDARD PLATE): inactive; negative | mutagenic call [3]: inactive; negative | mutagenic call (Test System: AMES SALMONELLA TYPHIMURIUM, Strain/Indicator: TA100, Metabolic Activation: RAT, LIVER, S-9, AROCLOR 1254 (10%), Method: STANDARD PLATE): inactive; negative | mutagenic call (Test System: AMES SALMONELLA TYPHIMURIUM, Strain/Indicator: TA1535, Metabolic Activation: HAMSTER, LIVER, S-9, AROCLOR 1254 (10%), Method: STANDARD PLATE): inactive; negative | mutagenic call (Test System: AMES SALMONELLA TYPHIMURIUM, Strain/Indicator: TA1535, Metabolic Activation: NONE, Method: STANDARD PLATE): inactive; negative | mutagenic call (Test System: AMES SALMONELLA TYPHIMURIUM, Strain/Indicator: TA1535, Metabolic Activation: RAT, LIVER, S-9, AROCLOR 1254 (10%), Method: STANDARD PLATE): inactive; negative | mutagenic call (Test System: AMES SALMONELLA TYPHIMURIUM, Strain/Indicator: TA1537, Metabolic Activation: HAMSTER, LIVER, S-9, AROCLOR 1254 (10%), Method: STANDARD PLATE): inactive; negative | mutagenic call [4]: inactive; negative | mutagenic call (Test System: AMES SALMONELLA TYPHIMURIUM, Strain/Indicator: TA1537, Metabolic Activation: RAT, LIVER, S-9, AROCLOR 1254 (10%), Method: STANDARD PLATE): inactive; negative | mutagenic call (Test System: AMES SALMONELLA TYPHIMURIUM, Strain/Indicator: TA1538, Metabolic Activation: HAMSTER, LIVER, S-9, AROCLOR 1254 (10%), Method: STANDARD PLATE): inactive; negative | mutagenic call (Test System: AMES SALMONELLA TYPHIMURIUM, Strain/Indicator: TA1538, Metabolic Activation: NONE, Method: STANDARD PLATE): inactive; negative | mutagenic call (Test System: AMES SALMONELLA TYPHIMURIUM, Strain/Indicator: TA1538, Metabolic Activation: RAT, LIVER, S-9, AROCLOR 1254 (10%), Method: STANDARD PLATE): inactive; negative

Nc1ccc(-c2ccc(N)c([N+](=O)[O-])c2)cc1
mutagenic call (Test System: AMES SALMONELLA TYPHIMURIUM, Strain/Indicator: TA98(1,8-DNP6), Metabolic Activation: NONE, Method: STANDARD PLATE): active; positive | mutagenic call (Test System: AMES SALMONELLA TYPHIMURIUM, Strain/Indicator: TA98(1,8-DNP6), Metabolic Activation: S-9, Method: STANDARD PLATE): active; positive | mutagenic call [2]: active; positive | mutagenic call (Test System: AMES SALMONELLA TYPHIMURIUM, Strain/Indicator: TA98, Metabolic Activation: S-9, Method: STANDARD PLATE): active; positive | mutagenic call [3]: inactive; negative | mutagenic call (Test System: AMES SALMONELLA TYPHIMURIUM, Strain/Indicator: TA100, Metabolic Activation: S-9, Method: STANDARD PLATE): active; positive

CCCN(CO)N=O
mutagenic call (Test System: CHINESE HAMSTER V-79, Strain/Indicator: V-79/OUABAIN, Metabolic Activation: NONE): active; positive

Cn1c(-c2ccccc2)c(N=Nc2scc[n+]2C)c2ccccc21
mutagenic call (Test System: AMES SALMONELLA TYPHIMURIUM, Strain/Indicator: TA1537, Metabolic Activation: HAMSTER, LIVER, S-9, AROCLOR 1254, Method: STANDARD PLATE): active; positive | mutagenic call [4]: active; positive | mutagenic call (Test System: AMES SALMONELLA TYPHIMURIUM, Strain/Indicator: TA1537, Metabolic Activation: RAT, LIVER, S-9, AROCLOR 1254, Method: STANDARD PLATE): active; positive | mutagenic call (Test System: Mouse lymphoma, Strain/Indicator: L5178Y (tk+/tk-), Metabolic Activation: None, Method: Suspension/plate): active; inconclusive (previous evaluation positive) | mutagenic call (Test System: Mouse lymphoma, Strain/Indicator: L5178Y (tk+/tk-), Metabolic Activation: Rat, Liver, S-9, Aroclor 1254, Method: Suspension/plate): active; inconclusive (previous evaluation positive)

O=C(Nc1ccccc1)c1cc2ccccc2c(N=Nc2cc(Cl)ccc2Cl)c1O
mutagenic call (Test System: AMES SALMONELLA TYPHIMURIUM, Strain/Indicator: TA98, Metabolic Activation: HAMSTER, LIVER, S-9, AROCLOR 1254 (10%), Method: PREINCUBATION): inactive; negative | mutagenic call (Test System: AMES SALMONELLA TYPHIMURIUM, Strain/Indicator: TA98, Metabolic Activation: HAMSTER, LIVER, S-9, AROCLOR 1254 (30%), Method: PREINCUBATION): active; positive | mutagenic call [1]: inactive; negative | mutagenic call (Test System: AMES SALMONELLA TYPHIMURIUM, Strain/Indicator: TA98, Metabolic Activation: RAT, LIVER, S-9, AROCLOR 1254 (30%), Method: PREINCUBATION): inactive; negative | mutagenic call (Test System: AMES SALMONELLA TYPHIMURIUM, Strain/Indicator: TA100, Metabolic Activation: HAMSTER, LIVER, S-9, AROCLOR 1254 (30%), Method: PREINCUBATION): inactive; negative | mutagenic call [5]: inactive; negative | mutagenic call (Test System: AMES SALMONELLA TYPHIMURIUM, Strain/Indicator: TA100, Metabolic Activation: RAT, LIVER, S-9, AROCLOR 1254 (30%), Method: PREINCUBATION): inactive; negative | mutagenic call (Test System: AMES SALMONELLA TYPHIMURIUM, Strain/Indicator: TA1538, Metabolic Activation: HAMSTER, LIVER, S-9, AROCLOR 1254 (30%), Method: PREINCUBATION): active; positive

N#Cc1cc([N+](=O)[O-])ccc1N
mutagenic call [1]: active; positive | mutagenic call (Test System: AMES SALMONELLA TYPHIMURIUM, Strain/Indicator: TA98, Metabolic Activation: RAT, LIVER, S-9, PHENOBARBITAL AND BETA-NAPHTHOFLAVONE, Method: PREINCUBATION): active; positive | mutagenic call [5]: active; positive | mutagenic call (Test System: AMES SALMONELLA TYPHIMURIUM, Strain/Indicator: TA100, Metabolic Activation: RAT, LIVER, S-9, PHENOBARBITAL AND BETA-NAPHTHOFLAVONE, Method: PREINCUBATION): active; positive

COC(=O)c1oc([N+](=O)[O-])c(Cl)c1Cl
mutagenic call [2]: active; positive | mutagenic call (Test System: AMES SALMONELLA TYPHIMURIUM, Strain/Indicator: TA100(NR), Metabolic Activation: NONE, Method: STANDARD PLATE): active; positive | mutagenic call (Test System: AMES SALMONELLA TYPHIMURIUM, Strain/Indicator: TA100, Metabolic Activation: NONE, Method: STANDARD PLATE (ANAEROBIC INCUBATION)): active; positive

O=C(Nc1ccccc1)C1CO1 (configuration not stated)
mutagenic call (Test System: AMES SALMONELLA TYPHIMURIUM, Strain/Indicator: TA100, Metabolic Activation: MOUSE, LIVER, S-9, AROCLOR 1254, Method: STANDARD PLATE): active; positive | mutagenic call [3]: active; positive
